{
  "source": "ChEMBL document CHEMBL1150711",
  "about": "“Maquiroside A, a new cytotoxic cardiac glycoside from Maquira calophylla” (1987)",
  "test_system": "KB",
  "experiment": "Cytotoxicity against human KB cells",
  "assay_type": "functional",
  "conditions": "read-out: ED50 (the source's name)",
  "data": [
    {"compound": "CO[C@H]1C[C@H](O[C@H]2CC[C@@]3(CO)[C@H](CC[C@@H]4[C@@H]3CC[C@]3(C)[C@@H](C5=CC(=O)OC5)CC[C@]43O)C2)O[C@H](C)[C@H]1O", "note": "[MAQUIROSIDE A]", "values": [
      {"measurement": "EC50", "result": 0.013, "unit": "µg/mL"}
    ]}
  ]
}
